Consider nine molecules from ChEMBL document CHEMBL1201862, “PubChem BioAssay data set” (2004).

Holding throughout (test): growth of human tumour cells (NCI), 48 h
The subject of assay [1] is A498.
For assay [2], the system named is CCRF-CEM.
The subject of assay [3] is EKVX.
In assay [4] the test system is HOP-92.
Assay [5] relates to HT-29.
For assay [6], the system named is IGROV-1.
Assay [7] concerns MDA-MB-231.
Assay [8] deals with MDA-MB-435.
The subject of assay [9] is NCI-H522.
The subject of assay [10] is RPMI-8226.
The test system of assay [11] is RXF 393.
Assay [12] has as its system SF-295.
The subject of assay [13] is SK-MEL-28.
Assay [14] relates to SNB-75.
Assay [15] relates to U-251.
Assay [16] relates to UACC-257.
Assay [17] relates to Malme-3M.

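How tested: cells in 96-well plates exposed to compound for 48 hours at five concentrations. GI50 = concentration required for 50% inhibition of growth.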 Active and inactive are the calls of the source. Cut-off read from the data, not from the text of the source: active = GI50 up to about 1.1 µM and inactive = higher.

On to `CCCc1c(O)c(=O)c2c(OC)cc(OC)c3c4c(OC)cc(OC)c5c(=O)c(O)c(CCC)c(c1c23)c54`, for which the GI50 in assay [1] was 0.678 µM (active); in assay [2], 0.181 µM (active); in assay [3], 1.06 µM (active); in [4], 0.681 µM (active); in [5], 0.729 µM (active); in assay [6] it was 0.337 µM (active). Besides, the GI50 is 1.56 µM (inactive) in assay [7]; 0.371 µM (active) in assay [8]; 0.199 µM (active) in assay [9]; 0.192 µM (active) in assay [10]; 2.79 µM (inactive) in [11]; 0.37 µM (active) in [12]. The GI50 was 3.13 µM (inactive) in assay [13], 0.183 µM (active) in assay [14], 0.415 µM (active) in assay [15] and 1.15 µM (inactive) in assay [16].

Turning to `CC(C)COC(c1ccc2c(c1)OCO2)C(C)Br` (configuration not stated), the GI50 in assay [1] is 33.4 µM (inactive); in assay [3], 26.2 µM (inactive); in [4], 21.7 µM (inactive); in [5], 18.9 µM (inactive); in assay [6], 32.8 µM (inactive); in assay [7] it was 35.9 µM (inactive). The GI50 is 21.7 µM (inactive) in assay [8]; 17.1 µM (inactive) in [17]; 18.7 µM (inactive) in [9]; 21.6 µM (inactive) in [10]; 10.5 µM (inactive) in assay [11]; 20 µM (inactive) in assay [12]. Also, the GI50 in [13] is 48.6 µM (inactive); in assay [14], 23.1 µM (inactive); in assay [15] it was 26.5 µM (inactive); in assay [16], 23 µM (inactive).

On to `O=C(O)CCC(C(=O)O)N1C(=O)C2C3CCC(C3)C2C1=O` (configuration not stated), for which the GI50 in assay [1], in assay [3], in assay [4], in assay [5], in [6] and in [7] was > 100 µM (inactive) each time. The GI50 in [8], in [17], in assay [9], in assay [10], in assay [11] and in assay [12] was > 100 µM (inactive) throughout. Besides, the GI50 in [13], in assay [14], in assay [15] and in assay [16] was > 100 µM (inactive) in each case.

For `CSc1ncnc2c1cnn2CCCCO`, the GI50 in assay [1], in assay [2], in [3], in [4], in [5] and in assay [6] was > 100 µM (inactive) each time. The GI50 in [7], in assay [8], in assay [17], in assay [9], in assay [10] and in assay [11] was > 100 µM (inactive) in each case. Besides, the GI50 in assay [12], in assay [13], in [15] and in assay [16] was > 100 µM (inactive) in each case.

For the molecule `CC(C)=CCN1CC(C)C(=O)Nc2ccccc21` (configuration not stated), the GI50 in [1] was > 100 µM (inactive); in assay [2], > 100 µM (inactive); in [3], > 100 µM (inactive); in [4], 49 µM (inactive); in assay [5] it was > 100 µM (inactive); in assay [6], > 100 µM (inactive). The GI50 in assay [7] was > 100 µM (inactive); in [8] it was > 100 µM (inactive); in [17], > 100 µM (inactive); in [9] it was 66.8 µM (inactive); in assay [10], > 100 µM (inactive); in [11], > 100 µM (inactive). In addition, the GI50 in assay [12] is > 100 µM (inactive); in assay [13] it was > 100 µM (inactive); in assay [15], > 100 µM (inactive); in assay [16], 44.7 µM (inactive).

For `CC(=O)Nc1ccc2cc(C#N)c(=O)[nH]c2n1`, the GI50 in assay [1], in assay [3], in assay [4], in assay [6], in assay [7] and in assay [8] was > 100 µM (inactive) throughout. The GI50 in assay [17], in assay [9], in [10], in assay [11], in assay [12] and in assay [13] was > 100 µM (inactive) in each case. Also, the GI50 in assay [14] is > 100 µM (inactive); in assay [15], 81.3 µM (inactive); in assay [16] it was > 100 µM (inactive).

Consider `CC(=O)OCC(OC(C)=O)C1C[C@H]2O[C@@H]3[C@H](C[C@H]2O1)O[C@@]1(C[C@@H]3C)C[C@H](C)[C@@H]2O[C@]3(C[C@@H]2O1)C[C@H]1O[C@H]2[C@H](C)[C@H]4OC(=O)CC5CC[C@H]6OC7[C@H]8O[C@]9(CC[C@H]%10CC(O)(CO)[C@H](CC[C@H]%11C[C@@H](C)C(O)(CO)C(C[C@@H]4O[C@H]2C[C@H]1O3)O%11)O%10)CC8O[C@@H]7[C@@H](O9)[C@H]6O5` (some centres not stated), for which the GI50 in assay [1] was > 0.214 µM (active); in assay [2], 0.00944 µM (active); in assay [3], 0.0234 µM (active); in [4], 0.0504 µM (active); in [6] it was 0.00436 µM (active); in assay [7], 0.0705 µM (active). Further, the GI50 in assay [8] is 0.000853 µM (active); in assay [17] it was 0.00297 µM (active); in [9], 0.000942 µM (active); in [10] it was 0.00282 µM (active); in assay [11], 0.00253 µM (active); in assay [12], 0.0043 µM (active). In addition, the GI50 in assay [13] is 0.0303 µM (active); in assay [14], 0.00308 µM (active); in assay [15], 0.00618 µM (active); in assay [16], 0.00555 µM (active).

Take `COc1ccc(C2=Nn3c(C)nnc3S/C2=C\c2ccc(-c3ccc([N+](=O)[O-])cc3)o2)cc1`: the GI50 in assay [1] was 31.2 µM (inactive); in assay [2], 3.92 µM (inactive); in assay [3], 27.9 µM (inactive); in assay [4] it was 22.5 µM (inactive); in assay [5], 14.2 µM (inactive); in [6], 20.8 µM (inactive). Further, the GI50 in [7] is 19.9 µM (inactive); in assay [8] it was 3.78 µM (inactive); in [17], 30.1 µM (inactive); in assay [9], 6.34 µM (inactive); in assay [10] it was 3.22 µM (inactive); in assay [11], 9.31 µM (inactive). For the same molecule, the GI50 in assay [12] was 38 µM (inactive); in assay [15], 9.33 µM (inactive); in assay [16], 17.3 µM (inactive).

For the molecule `CN(C)c1ccc(C(=C2C=CC(=[N+](C)C)C=C2)c2c(O)c(S(=O)(=O)[O-])cc3cc(S(=O)(=O)O)ccc23)cc1`, the GI50 in assay [1], in assay [3], in assay [4], in assay [5], in [6] and in assay [7] was > 100 µM (inactive) throughout. For the same molecule, the GI50 in assay [8], in assay [17], in assay [9], in [10], in [11] and in [12] was > 100 µM (inactive) each time. Moreover, the GI50 in assay [13], in [14], in assay [15] and in assay [16] was > 100 µM (inactive) throughout.
